According to patent publication US9738637B2, “Histone demethylase inhibitors” (Quanticel Pharmaceuticals, Inc., priority 2013, dated 2017):

Columns and labels:
Assay type in all cases: biochemical
Jarid1A = Jarid1A (Homo sapiens (Human), UniProt P29375); test: Jarid1A in vitro enzyme inhibition assay (TR-FRET); details: H3K4me3-biotin peptide
Description: (§1) This assay determines the ability of a test compound to inhibit Jarid1A, Jarid1B, JMJD2C, and JMJD2A demethylase activity.
The enzymatic assay of Jarid1A activity is based upon Time Resolved-Fluorescence Resonance Energy Transfer (TR-FRET) detection.
The assay reaction was initiated by the following: 2 μl of the mixture of 900 nM H3K4me3-biotin labeled peptide and 6 μM alpha-ketoglutaric acid with 2 μl of 11-point serial diluted inhibitor in 3% DMSO was added to each well of plate, followed by the addition of 2 μl of 3 nM Jarid1A to initiate the reaction. The reaction mixture was incubated at room temperature for 30 minutes, and terminated by the addition of 6 μl of 5 mM EDTA in LANCE detection buffer containing 50 nM Phycolink Streptavidin-allophycocyanin and 2 nM Europium-anti-H3K4me1-2 antibody.
(§2) The ability of the compounds disclosed herein to inhibit demethylase activity was quantified and the respective IC50 value was determined.

Jarid1B = Jarid1B (Homo sapiens (Human), UniProt Q9UGL1); test: Jarid1B in vitro enzyme inhibition assay (TR-FRET); details: TR-FRET, H3K4me3-biotin peptide; read-out: IC50 Jarid1B
Description: as §1
The reaction mixture was incubated at room temperature for 30 minutes, and terminated by the addition of 6 μl of 5 mM EDTA in LANCE detection buffer containing 50 nM Phycolink Streptavidin-allophycocyanin and 2 nM Europium-anti-H3K4me1-2 antibody.
as §2

JMJD2C = JMJD2C (Homo sapiens (Human), UniProt Q9H3R0); test: JMJD2C in vitro enzyme inhibition assay (TR-FRET); details: TR-FRET, H3K9me3-biotin peptide; read-out: IC50 JNJD2C
Description: as §1
Reaction product was determined quantitatively by TR-FRET after the addition of detection reagent Phycolink Streptavidin-allophycocyanin (Prozyme) and Europium-anti-di-methylated histone H3 lysine 9 (H3K9me2) antibody (PerkinElmer) in the presence of 5 mM EDTA in LANCE detection buffer (PerkinElmer) at a final concentration of 50 nM and 1 nM, respectively.
The assay reaction was initiated by the following: 2 μl of the mixture of 900 nM H3K9me3-biotin labeled peptide and 6 μM alpha-ketoglutaric acid with 2 μl of 11-point serial diluted inhibitor in 3% DMSO were added to each well of the plate, followed by the addition of 2 μl of 0.9 nM JMJD2C to initiate the reaction. The reaction mixture was incubated at room temperature for 30 minutes, and terminated by the addition of 6 μl of 5 mM EDTA in LANCE detection buffer containing 100 nM Phycolink Streptavidin-allophycocyanin and 2 nM Europium-anti-H3K9me2 antibody.
as §2

Jarid1A, sequence (P29375 1-1090): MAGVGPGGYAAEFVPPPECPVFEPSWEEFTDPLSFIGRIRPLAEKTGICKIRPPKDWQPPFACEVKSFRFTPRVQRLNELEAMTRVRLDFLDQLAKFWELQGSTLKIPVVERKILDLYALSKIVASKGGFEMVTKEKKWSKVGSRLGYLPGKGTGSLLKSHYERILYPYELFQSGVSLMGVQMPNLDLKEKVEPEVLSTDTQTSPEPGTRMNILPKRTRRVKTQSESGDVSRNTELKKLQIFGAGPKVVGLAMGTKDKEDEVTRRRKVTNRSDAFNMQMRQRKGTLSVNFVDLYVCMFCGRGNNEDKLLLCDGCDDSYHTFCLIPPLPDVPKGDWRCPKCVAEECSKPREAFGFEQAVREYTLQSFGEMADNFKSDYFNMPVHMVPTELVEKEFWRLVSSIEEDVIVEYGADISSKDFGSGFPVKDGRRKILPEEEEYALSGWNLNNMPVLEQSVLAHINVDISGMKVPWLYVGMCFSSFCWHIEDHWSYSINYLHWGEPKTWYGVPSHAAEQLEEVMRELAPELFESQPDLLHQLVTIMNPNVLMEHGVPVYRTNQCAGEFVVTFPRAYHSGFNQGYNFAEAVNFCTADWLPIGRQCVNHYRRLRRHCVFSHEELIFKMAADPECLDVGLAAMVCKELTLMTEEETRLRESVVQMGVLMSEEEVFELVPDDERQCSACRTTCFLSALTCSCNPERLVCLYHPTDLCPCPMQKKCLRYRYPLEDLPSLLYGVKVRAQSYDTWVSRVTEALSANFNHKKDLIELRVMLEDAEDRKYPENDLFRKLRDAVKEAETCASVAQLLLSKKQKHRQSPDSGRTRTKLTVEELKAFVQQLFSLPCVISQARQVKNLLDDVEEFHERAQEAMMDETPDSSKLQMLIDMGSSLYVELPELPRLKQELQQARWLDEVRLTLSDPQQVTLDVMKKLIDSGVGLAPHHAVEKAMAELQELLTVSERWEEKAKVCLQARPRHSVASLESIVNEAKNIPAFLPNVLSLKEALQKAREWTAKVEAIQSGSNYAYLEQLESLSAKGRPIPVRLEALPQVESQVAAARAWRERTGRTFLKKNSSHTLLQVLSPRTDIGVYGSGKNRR
Jarid1B, sequence (Q9UGL1 2-751): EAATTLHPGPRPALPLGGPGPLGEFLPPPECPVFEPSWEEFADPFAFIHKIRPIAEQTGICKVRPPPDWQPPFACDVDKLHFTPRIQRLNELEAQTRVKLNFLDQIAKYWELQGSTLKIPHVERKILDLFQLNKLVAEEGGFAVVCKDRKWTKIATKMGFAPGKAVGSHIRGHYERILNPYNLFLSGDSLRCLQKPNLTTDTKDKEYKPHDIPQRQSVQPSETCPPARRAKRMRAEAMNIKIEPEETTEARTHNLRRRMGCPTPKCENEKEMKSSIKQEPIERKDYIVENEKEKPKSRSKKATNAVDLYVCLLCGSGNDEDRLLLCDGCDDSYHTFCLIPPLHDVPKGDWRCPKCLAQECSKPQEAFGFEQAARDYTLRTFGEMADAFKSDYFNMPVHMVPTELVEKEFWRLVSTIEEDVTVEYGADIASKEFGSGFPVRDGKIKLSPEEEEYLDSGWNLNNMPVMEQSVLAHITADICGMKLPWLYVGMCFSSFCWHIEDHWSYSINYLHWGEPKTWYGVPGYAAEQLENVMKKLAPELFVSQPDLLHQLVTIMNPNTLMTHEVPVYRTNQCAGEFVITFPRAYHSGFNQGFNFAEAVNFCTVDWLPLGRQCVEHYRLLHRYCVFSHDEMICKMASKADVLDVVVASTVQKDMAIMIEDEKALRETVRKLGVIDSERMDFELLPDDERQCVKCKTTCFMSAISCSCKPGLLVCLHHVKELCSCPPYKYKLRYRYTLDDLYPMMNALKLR
JMJD2C, sequence (Q9H3R0 2-372): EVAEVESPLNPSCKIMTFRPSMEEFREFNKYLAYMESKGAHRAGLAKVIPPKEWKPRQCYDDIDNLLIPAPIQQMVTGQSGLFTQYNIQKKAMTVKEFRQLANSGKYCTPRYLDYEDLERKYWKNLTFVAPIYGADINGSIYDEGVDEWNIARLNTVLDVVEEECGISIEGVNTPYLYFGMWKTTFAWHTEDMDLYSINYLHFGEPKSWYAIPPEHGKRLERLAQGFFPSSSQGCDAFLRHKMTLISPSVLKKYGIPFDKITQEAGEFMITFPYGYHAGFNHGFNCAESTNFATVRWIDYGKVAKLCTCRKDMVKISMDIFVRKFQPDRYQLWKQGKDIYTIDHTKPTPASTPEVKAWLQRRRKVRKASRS

SMILES	IC50 (Jarid1A)	IC50 (Jarid1B)	IC50 (JMJD2C)
COCc1cc2nccc(C(=O)O)c2[nH]1 [Example 41, 2-(methoxymethyl)-1H-pyrrolo[3,2-b]pyridine-7-carboxylic acid]	100 to 1000 nM	100 to 1000 nM	< 100 nM
O=C(O)c1ccnc2cc(CC3CCCCC3)[nH]c12 [Example 54, 2-(cyclohexylmethyl)-1H-pyrrolo[3,2-b]pyridine-7-carboxylic acid]	100 to 1000 nM	100 to 1000 nM	< 100 nM
O=C(O)c1ccnc2cc(Cc3ccc(C(F)(F)F)cc3)[nH]c12 [Example 56, 2-[[4-(trifluoromethyl)phenyl]methyl]-1H-pyrrolo[3,2-b]pyridine-7-carboxylic acid]	100 to 1000 nM	100 to 1000 nM	100 to 1000 nM
N#CCCc1cc2nccc(C(=O)O)c2[nH]1 [Example 58, 2-(2-cyanoethyl)-1H-pyrrolo[3,2-b]pyridine-7-carboxylic acid]	100 to 1000 nM	100 to 1000 nM	< 100 nM
COc1ccc(Cc2cc3nccc(C(=O)O)c3[nH]2)cc1 [Example 59, 2-[(4-methoxyphenyl)methyl]-1H-pyrrolo[3,2-b]pyridine-7-carboxylic acid]	100 to 1000 nM	100 to 1000 nM	< 100 nM
Cc1ccc(OCc2cc3nccc(C(=O)O)c3[nH]2)cc1 [Example 62, 2-[(4-methylphenoxy)methyl]-1H-pyrrolo[3,2-b]pyridine-7-carboxylic acid]	100 to 1000 nM	100 to 1000 nM	100 to 1000 nM
O=C(O)c1ccnc2cc(CCc3ccccc3)[nH]c12 [Example 70, 2-(2-phenylethyl)-1H-pyrrolo[3,2-b]pyridine-7-carboxylic acid]	100 to 1000 nM	100 to 1000 nM	< 100 nM
O=C(O)c1ccnc2cc(-c3cc4ccccc4o3)[nH]c12 [Example 92, 2-(1-benzofuran-2-yl)-1H-pyrrolo[3,2-b]pyridine-7-carboxylic acid]	100 to 1000 nM	100 to 1000 nM	100 to 1000 nM
COc1ccc(OCc2cc3nccc(C(=O)O)c3[nH]2)cc1 [Example 93, 2-[(4-methoxyphenoxy)methyl]-1H-pyrrolo[3,2-b]pyridine-7-carboxylic acid]	100 to 1000 nM	< 100 nM	100 to 1000 nM
O=C(O)c1ccnc2cc(COc3ccccc3Cl)[nH]c12 [Example 94, 2-[(2-chlorophenoxy)methyl]-1H-pyrrolo[3,2-b]pyridine-7-carboxylic acid]	100 to 1000 nM	100 to 1000 nM	1000 to 10000 nM
O=C(O)c1ccnc2cc(COc3ccccc3F)[nH]c12 [Example 95, 2-[(2-fluorophenoxy)methyl]-1H-pyrrolo[3,2-b]pyridine-7-carboxylic acid]	100 to 1000 nM	100 to 1000 nM	100 to 1000 nM
CC(=O)Nc1ccc(OCc2cc3nccc(C(=O)O)c3[nH]2)cc1 [Example 97, 2-{[4-(acetylamino)phenoxy]methyl}-1H-pyrrolo[3,2-b]pyridine-7-carboxylic acid]	100 to 1000 nM	100 to 1000 nM	100 to 1000 nM
O=C(O)c1ccnc2cc(C(=O)N3CCCc4ccccc43)[nH]c12 [Example 105, 2-(1,2,3,4-tetrahydroquinolylcarbonyl)-pyrrolo[3,2-b]pyridine-7-carboxylic acid]	100 to 1000 nM	1000 to 10000 nM	1000 to 10000 nM
O=C(O)c1ccnc2cc(C(=O)N3CCCCC3)[nH]c12 [Example 109, 2-(piperidylcarbonyl)pyrrolo[3,2-b]pyridine-7-carboxylic acid]	100 to 1000 nM	100 to 1000 nM	100 to 1000 nM
CC(c1ccc(F)cc1)c1cc2nccc(C(=O)O)c2[nH]1 (stereo not drawn) [Example 110, 2-[1-(4-fluorophenyl)ethyl]-1H-pyrrolo[3,2-b]pyridine-7-carboxylic acid]	100 to 1000 nM	100 to 1000 nM	100 to 1000 nM

Results, then the compound that gave them:

IC50 (Jarid1A)	IC50 (Jarid1B)	IC50 (JMJD2C)	SMILES
100 to 1000 nM	100 to 1000 nM	< 100 nM	O=C(O)c1ccnc2cc(C3CCCC3)[nH]c12 [Example 29, 2-cyclopentyl-1H-pyrrolo[3,2-b]pyridine-7-carboxylic acid]
< 100 nM	100 to 1000 nM	< 100 nM	O=C(O)c1ccnc2cc(CC3CCCC3)[nH]c12 [Example 52, 2-(cyclopentylmethyl)-1H-pyrrolo[3,2-b]pyridine-7-carboxylic acid]
< 100 nM	< 100 nM	100 to 1000 nM	O=C(O)c1ccnc2cc(COc3ccc(C(F)(F)F)cc3)[nH]c12 [Example 68, 2-[[4-(trifluoromethyl)phenoxy]methyl]-1H-pyrrolo[3,2-b]pyridine-7-carboxylic acid]
< 100 nM	< 100 nM	100 to 1000 nM	O=C(O)c1ccnc2cc(COc3ccc4c(c3)CCO4)[nH]c12 [Example 76, 2-(2,3dihydro-1-benzofuran-5-yloxymethyl)-1H-pyrrolo[3,2-b]pyridine-7-carboxylic acid]
< 100 nM	< 100 nM	< 100 nM	O=C(O)c1ccnc2cc(Cc3ccccc3Cl)[nH]c12 [Example 78, 2-[(2-chlorophenyl)methyl]-1H-pyrrolo[3,2-b]pyridine-7-carboxylic acid]
< 100 nM	< 100 nM	< 100 nM	O=C(O)c1ccnc2cc(COc3cccc(F)c3)[nH]c12 [Example 79, 2-[(3-fluorophenoxy)methyl]-1H-pyrrolo[3,2-b]pyridine-7-carboxylic acid]
< 100 nM	< 100 nM	100 to 1000 nM	O=C(O)c1ccnc2cc(COc3cccc(Cl)c3)[nH]c12 [Example 80, 2-[(3-chlorophenoxy)methyl]-1H-pyrrolo[3,2-b]pyridine-7-carboxylic acid]
< 100 nM	< 100 nM	< 100 nM	O=C(O)c1ccnc2cc(COc3cc(F)cc(F)c3)[nH]c12 [Example 81, 2-[(3,5-difluorophenoxy)methyl]-1H-pyrrolo[3,2-b]pyridine-7-carboxylic acid]
< 100 nM	< 100 nM	100 to 1000 nM	Cc1cc(C)cc(OCc2cc3nccc(C(=O)O)c3[nH]2)c1 [Example 82, 2-[(3,5-dimethylphenoxy)methyl]-1H-pyrrolo[3,2-b]pyridine-7-carboxylic acid]
< 100 nM	< 100 nM	100 to 1000 nM	O=C(O)c1ccnc2cc(COc3cc(Cl)cc(Cl)c3)[nH]c12 [Example 83, 2-[(3,5-dichlorophenoxy)methyl]-1H-pyrrolo[3,2-b]pyridine-7-carboxylic acid]
< 100 nM	< 100 nM	100 to 1000 nM	O=C(O)c1ccnc2cc(Cc3ccc(Cl)cc3Cl)[nH]c12 [Example 90, 2-[(2,4-dichlorphenyl)methyl]-1H-pyrrolo[3,2-b]pyridine-7-carboxylic acid]
< 100 nM	< 100 nM	100 to 1000 nM	O=C(O)c1ccnc2cc(COc3ccc(F)cc3Cl)[nH]c12 [Example 96, 2-[(2-chloro-4-fluorophenoxy)methyl]-1H-pyrrolo[3,2-b]pyridine-7-carboxylic acid]
< 100 nM	100 to 1000 nM	100 to 1000 nM	N#Cc1ccc(OCc2cc3nccc(C(=O)O)c3[nH]2)cc1 [Example 98, 2-[(4-cyanophenoxy)methyl]-1H-pyrrolo[3,2-b]pyridine-7-carboxylic acid]
< 100 nM	< 100 nM	< 100 nM	CC(O)(c1ccc(F)cc1)c1cc2nccc(C(=O)O)c2[nH]1 (stereo not drawn) [Example 103, 2-[1-(4-fluorophenyl)-1-hydroxyethyl]-1H-pyrrolo[3,2-b]pyridine-7-carboxylic acid]
< 100 nM	< 100 nM	100 to 1000 nM	O=C(O)c1ccnc2cc(C(=O)N3CCc4ccccc43)[nH]c12 [Example 107, 2-(indolinylcarbonyl)pyrrolo[3,2-b]pyridine-7-carboxylic acid]
< 100 nM	< 100 nM	< 100 nM	O=C(O)c1ccnc2cc(Cc3ccc(F)c(Cl)c3)[nH]c12 [Example 112, 2-(3-chloro-4-fluorobenzyl)-1H-pyrrolo[3,2-6]pyridine-7-carboxylic acid]
< 100 nM	< 100 nM	< 100 nM	O=C(O)c1ccnc2cc(Cc3ccc(Cl)c(F)c3)[nH]c12 [Example 114, 2-(4-chloro-3-fluorobenzyl)-1H-pyrrolo[3,2-b]pyridine-7-carboxylic acid]
